Measurements published in patent publication US8133872B2 (Industrial Cooperation Foundation, Chonbuk National …, priority 2008, dated 2012).
Entries after “also recorded” stand apart in the source; their conditions may differ.

Assays:
[1] = tested on: pancreatic islet cells of type-2 diabetic mice; assay: Immunohistochemical (anti-insulin antibody) and hematoxylin-eosin staining of pancreatic islets; assay type: in vivo; settings: 1 mg/kg/day for 3 weeks, FIG. 4
Procedure: After 120 minutes, the mice were sacrificed by cervical dislocation, and then immediately the peritoneum was incised. Then, the intestinal and pancreatic tissues were collected and fixed in 4% paraformaldehyde solution (solvent-phosphate buffer; pH 7.4; Sigma, USA) for 12 hours or more. Then, the pancreatic tissue was separated from the intestinal or adipose tissue, and the separated tissue was washed three times or more with a fresh fixture and then processed into paraffin-embedded tissue according to a conventional method.
Tissue sections were cut from the paraffin-embedded tissue at 5-μm intervals using a microtome (Shandon, Germany) and applied to slides coated with poly-L-lysine (Sigma, USA) before use in immunohistochemical staining. In order to remove paraffin from the pancreatic tissue-coated slides, sections were deparaffinized with xylene (Junsei, Japan) for 5 minutes to remove paraffin. Then, the sections were hydrated in 100-70% alcohol series and allowed to stand in phosphate buffer (pH 7.4) for 5 minutes. Then, the sections were treated with 3% hydrogen peroxide to remove intrinsic peroxidase, and then allowed to react with anti-insulin antibody (Dako, USA) at 4° C. for 12 hours. Then, the section samples were subjected to immunohistochemical staining with anti-insulin antibody using an immunohistochemical staining kit (A.B.I., Jeonju-si, Korea). […]

[2] = tested on: type-2 diabetic mice (C57BL/KsJ-db/db Jcl); assay: Serum insulin after glucose load in type-2 diabetic mice given NAADP (insulin RIA kit); assay type: in vivo
Procedure: The same test method as described in Example 2 was used, and 50 μl of blood was collected from the tail vein just before glucose load. At 30 minutes (showing the highest blood glucose level after glucose load) and at 120 minutes (showing the lowest blood glucose level after glucose load), the same amount of blood was collected and coagulated, and serum was separated from the blood. The separated serum was measured for insulin concentration using an insulin RIA kit (Linco Research Inc., USA).

[3] = tested on: type-2 diabetic mice (C57BL/KsJ-db/db Jcl); assay: Glucose tolerance test (blood glucose after glucose load) in type-2 diabetic mice given NAADP by osmotic mini-pump; assay type: in vivo
Excerpt: Seven-week-old type-2 diabetic mice were divided into a control group (five animals) and test groups and tested using an osmotic mini-pump in the following manner. […] Then, the NAADP solution was infused into the abdominal cavity of the mice according to the method described in the supplier's manual.

[4] = tested on: pancreatic β-islet cells; assay: Insulin secretion from isolated mouse pancreatic islets treated with NAADP (radioimmunoassay); assay type: cell-based, mice
Procedure: The isolation of pancreatic islets from six, 8-week-old ICR mice (Orientbio Inc., Seongnam-si, Korea) weighing 25-30 g was carried out according to the method of Lacy and Kotianovsky (Diabetes, 16, 35-39, 1967) in the following manner. Mice were sacrificed by cervical dislocation, and the peritoneum was incised. Hank's balanced salt solution (HBSS, Gibco, USA) containing 1 mg/mL of collagenase (Sigma, USA) was infused into the bile duct to inflate the pancreas, and then the pancreas was isolated. The isolated pancreas was incubated at 37° C. for 20 minutes, and then homogeneously agitated. The agitated solution was washed with HBSS to remove acinar cells, and then pancreatic islets of a given size were separated from the solution under stereoscopic binocular microscope. […] The concentration of insulin in the supernatant from which the pancreatic β-islet cells have been removed was measured. The measurement of the insulin concentration was carried out by radioimmunoassay using an insulin measurement kit (Diagnostic Products Corp., USA).
Insulin secretion from the mouse pancreatic β-islet cells after treatment by 0 nM and 50 nM at extracellular glucose concentrations maintained at 2.8 mM and 12 mM was measured, and the measurement results are shown in FIG. 1.

[5] = 1 mg/kg/day NAADP by osmotic mini-pump, sera at 0, 30 and 120 min
[6] = 1 mg/kg/day NAADP by osmotic mini-pump, fasting from 13 hours before testing

nicotinic acid adenine dinucleotide phosphate [NAADP]
hematoxylin-eosin staining: capsules covering the pancreatic islets and β-islet cells [1]: clustered together
positive response of pancreatic β-islet cells to anti-insulin antibody ([1]; compared to control group): clearly increased
blood insulin level after the peak, up to 120 minutes after glucose load [2, 5]: maintained at a constant level
time of blood insulin peak after glucose load [2, 5]: 30 min
blood insulin concentration ([2]; 1 mg/kg/day, at 3 weeks (10-week-old), after glucose load, FIG. 3): clear increase in blood insulin concentration
time at which blood glucose returned to the fasting blood glucose level after glucose load [3, 6]: 120 min
time of blood glucose peak after glucose load [3, 6]: 30 min
blood glucose levels ([3]; 1 mg/kg/day intraperitoneally by osmotic mini-pump, 3 weeks, type-2 diabetic mice, FIG. 2): clear decrease in blood glucose levels; also recorded: clear effect of lowering the blood glucose levels
insulin secretion from pancreatic β-islet cells ([4]; 50 nM NAADP, glucose 12 mM, 37° C., FIG. 1): great increase in insulin secretion
NAADP concentration essential for stimulating insulin secretion from pancreatic β-islet cells ([4]; in the presence of glucose): 5 to 500 nM
